Results as given in patent US11260083B2, “Compositions and methods for treating and preventing graft versus host disease” (The Regents of the University of Michigan, priority 2016, dated 2022).

Tests used:
[1] = tested on: C3H.SW (H-2b) → C57BL/6J (H-2b) BMT recipients; test: MHC-matched, minor antigen mismatched BMT model with butyrate; assay type: in vivo, mouse
Experimental: BMTs were performed as previously described (Reddy, P. et al. A crucial role for antigen-presenting cells and alloantigen expression in graft-versus-leukemia responses. Nat. Med. 11, 1244-1249 (2005); 15). Briefly, syngeneic (BALB/c→BALC/c or C57BL/6J→C57BL/6J) and allogeneic (C57BL/6J→BALB/c or C3H.sw→C57BL/6J) recipients received lethal irradiation. On day −1, BALB/c recipients received a total of 800 cGy of irradiation (split dose separated by 3 hours) and B6 animals received a single dose of 1000 cGy. […] Survival was monitored daily and the recipient body weight and GVHD clinical scores were determined weekly, as described previously42. […]
Systemic administration of HDACi decreases acute GVHD (Reddy, P. et al. Histone deacetylase inhibitor suberoylanilide hydroxamic acid reduces acute graft-versus-host disease and preserves graft-versus-leukemia effect. Proc Natl Acad Sci USA 101, 3921-3926 (2004); Reddy, P. et al. Histone deacetylase inhibition modulates indoleamine 2,3-dioxygenasedependent DC functions and regulates experimental graft-versus-host disease in mice. J. Clin. Invest. 118, 2562-2573 (2008); Sun, Y. et al. Cutting edge: Negative regulation of dendritic cells through acetylation of the nonhistone protein STAT-3. J Immunol 182, 5899-5903 (2009)). It was therefore determined if increasing local levels of endogenous HDACi, butyrate, would impact GVHD severity. […]

primary CD326+ IECs = test: Chromatin immunoprecipitation (acetylated histone-H4) of primary CD326+ IECs; assay type: cell-based, mouse
Experimental: Primary CD326+ IECs were seeded on gelatin (Cell Biologics; Chicago, Ill.) coated cell culture dishes (100 mm) overnight followed by treatment with butyrate 1 mM for 24 hours. Cells were harvested and used for ChIP analysis using EZ-Magna ChIP kit from EMD Millipore (Billerica, Mass.) following the manufacturers instructions. Briefly, cells were cross-linked with 1% formaldehyde and extracted chromatin was sonicated using a Bioruptor Pico by Diagenode (Denville, N.J.) to yield DNA fragments predominately in the range of 200-1000 bp. Sonicated lysates were immunoprecipitated (IP) utilizing ChIP grade specific antibodies purchased from EMD Millipore for acetylated histone-H4 and RNA Pol II or IgG control antibody. De-crosslinked DNA was next examined by qPCR using primers targeting the promoter region of the target gene BCL-B (Bcl2110) (Forward: […] (SEQ ID NO:50); Reverse: […] (SEQ ID NO:51)), Slc5a8 (Forward: […] (SEQ ID NO:52); Reverse: […] (SEQ ID NO:53), and JAM (F11r) (Forward: […] (SEQ ID NO:54; Reverse: […] (SEQ ID NO:55)). IP efficiency of all samples was verified by qPCR analysis of the promoter region of Gapdh (Forward: […] (SEQ ID NO:56); Reverse: […] (SEQ ID NO:57)). Data analysis was determined as percent of input utilizing the equations: ΔCt[normalized ChIP]=(Ct[ChIP]−(Ct[Input]−[…])) and % Input=2(−ΔCt [normalized ChIP]).

HAT = HAT enzymatic activity in donor T cells from recipient spleen; assay type: in vivo, mouse; settings: butyrate vs vehicle treated allogeneic animals
Experimental: To further determine whether the salutary effects of local treatment with butyrate on GI GVHD were dependent on donor Treg cells, a BMT was performed utilizing the same HC mismatched BMT model in which C57BL/6J (H-2b) cells are transferred to Balb/c (H-2d) mice. T cell-depleted (TCD) bone marrow was transplanted and purified CD4+CD25− T cells from donors. Vehicle or butyrate was administered to the recipients daily for 1 week, then every other day thereafter as above. […]. J. Exp. Med. 204, 57-63 (2007); Lahl, K. & Sparwasser, T. In vivo depletion of FoxP3+ Tregs using the DEREG mouse model. […]. The Treg depleted T cells were then used as donor cells in the major MHC mismatch model used above. […] To further examine whether the local administration of butyrate impacted donor T cells directly, the HDAC and HAT enzymatic activity was determined in donor T cells harvested from the recipient animals. Both the HDAC activity or HAT activity in the donor T cells harvested from the recipient spleen were similar between butyrate and vehicle treated allogeneic animals.

Q: `CCCC(=O)[O-].[Na+]` [butyrate, sodium butyrate] was tested. Which “histological scores in both the intestines and liver” value ([1]; 21 days following BMT, minor antigen mismatch) did it give?
A: decreased histological scores

Q: What about the survival ([1]; minor antigen mismatched model) of the same molecule?
A: improved survival

Q: What about the “association of acetylated histone H4 in the promoter region of Slc5a8” value (primary CD326+ IECs; IECs (CD326+) treated with butyrate 1 mM 24 hours) of the same molecule?
A: increased association

Q: And the “acetylation of histone H4 at the promoter region of Bcl2110” value (primary CD326+ IECs; butyrate treated IECs (CD326+))?
A: associated with the promoter region

Q: And the “acetylation of histone H4 at the promoter region of F11r” value (primary CD326+ IECs; butyrate treated IECs (CD326+))?
A: associated with the promoter region

Q: What about the “HAT activity in donor T cells” value (HAT) of the same molecule?
A: similar
